Several values for one entry are separate records, joined by “and”; a condition that tells them apart may be missing. Equal values may be shown once. ± gives the expanded uncertainty stated by the source.
Assay: molar heat capacity at saturation pressure
Details: Small (less than 1 g) adiabatic calorimetry

**Q.** Which molar heat capacity (303.01 K, Crystal 1) does the source give for `ON=C1CCCCC1` [cyclohexanone oxime] here?
**A.** 192.59 ± 1 J/K/mol

**Q.** What about the molar heat capacity (303.67 K, Crystal 1) of the same compound?
**A.** 191.89 ± 1 J/K/mol

**Q.** And the molar heat capacity (303.76 K, Crystal 1)?
**A.** 191.84 ± 1 J/K/mol

**Q.** What about the molar heat capacity (304.57 K, Crystal 1) of the same compound?
**A.** 191.66 ± 1 J/K/mol

**Q.** What about the molar heat capacity (305.34 K, Crystal 1) of the same compound?
**A.** 191.58 ± 1 J/K/mol

**Q.** What about the molar heat capacity (305.36 K, Crystal 1) of the same compound?
**A.** 191.49 ± 1 J/K/mol

**Q.** What about the molar heat capacity (305.83 K, Crystal 1) of the same compound?
**A.** 191.51 ± 1 J/K/mol

**Q.** And the molar heat capacity (306.14 K, Crystal 1)?
**A.** 191.69 ± 1 J/K/mol

**Q.** And the molar heat capacity (306.91 K, Crystal 1)?
**A.** 191.81 ± 1 J/K/mol

**Q.** What about the molar heat capacity (307.05 K, Crystal 1) of the same compound?
**A.** 191.78 ± 1 J/K/mol

**Q.** What about the molar heat capacity (307.6 K, Crystal 1) of the same compound?
**A.** 191.89 ± 1 J/K/mol

**Q.** What about the molar heat capacity (307.71 K, Crystal 1) of the same compound?
**A.** 191.96 ± 1 J/K/mol

**Q.** What about the molar heat capacity (308.49 K, Crystal 1) of the same compound?
**A.** 192.2 ± 1 J/K/mol

**Q.** What about the molar heat capacity (308.74 K, Crystal 1) of the same compound?
**A.** 192.41 ± 1 J/K/mol

**Q.** And the molar heat capacity (309.27 K, Crystal 1)?
**A.** 192.53 ± 1 J/K/mol

**Q.** What about the molar heat capacity (309.38 K, Crystal 1) of the same compound?
**A.** 192.47 ± 1 J/K/mol

**Q.** And the molar heat capacity (310.07 K, Crystal 1)?
**A.** 192.72 ± 1 J/K/mol

**Q.** What about the molar heat capacity (310.43 K, Crystal 1) of the same compound?
**A.** 193 ± 1 J/K/mol

**Q.** What about the molar heat capacity (310.95 K, Crystal 1) of the same compound?
**A.** 193.22 ± 1 J/K/mol

**Q.** And the molar heat capacity (311.16 K, Crystal 1)?
**A.** 193.22 ± 1 J/K/mol

**Q.** And the molar heat capacity (311.68 K, Crystal 1)?
**A.** 193.28 ± 1 J/K/mol

**Q.** And the molar heat capacity (312.22 K, Crystal 1)?
**A.** 193.77 ± 1 J/K/mol

**Q.** What about the molar heat capacity (312.72 K, Crystal 1) of the same compound?
**A.** 193.93 ± 1 J/K/mol

**Q.** And the molar heat capacity (312.94 K, Crystal 1)?
**A.** 194.04 ± 1 J/K/mol

**Q.** What about the molar heat capacity (313.36 K, Crystal 1) of the same compound?
**A.** 194.05 ± 1 J/K/mol

**Q.** And the molar heat capacity (314.11 K, Crystal 1)?
**A.** 194.56 ± 1 J/K/mol

**Q.** And the molar heat capacity (314.48 K, Crystal 1)?
**A.** 194.7 ± 1 J/K/mol

**Q.** What about the molar heat capacity (314.72 K, Crystal 1) of the same compound?
**A.** 194.7 ± 1 J/K/mol

**Q.** What about the molar heat capacity (315.03 K, Crystal 1) of the same compound?
**A.** 194.86 ± 1 J/K/mol

**Q.** And the molar heat capacity (316 K, Crystal 1)?
**A.** 195.45 ± 1.1 J/K/mol

**Q.** And the molar heat capacity (316.25 K, Crystal 1)?
**A.** 195.55 ± 1.1 J/K/mol

**Q.** What about the molar heat capacity (316.49 K, Crystal 1) of the same compound?
**A.** 195.61 ± 1.1 J/K/mol

**Q.** And the molar heat capacity (316.71 K, Crystal 1)?
**A.** 195.66 ± 1.1 J/K/mol

**Q.** What about the molar heat capacity (317.89 K, Crystal 1) of the same compound?
**A.** 196.42 ± 1.1 J/K/mol

**Q.** And the molar heat capacity (318.01 K, Crystal 1)?
**A.** 196.38 ± 1.1 J/K/mol

**Q.** And the molar heat capacity (318.27 K, Crystal 1)?
**A.** 196.48 ± 1.1 J/K/mol

**Q.** And the molar heat capacity (318.38 K, Crystal 1)?
**A.** 196.46 ± 1.1 J/K/mol

**Q.** And the molar heat capacity (319.77 K, Crystal 1)?
**A.** 197.45 ± 1.1 J/K/mol and 197.36 ± 1.1 J/K/mol

**Q.** What about the molar heat capacity (320.04 K, Crystal 1) of the same compound?
**A.** 197.43 ± 1.1 J/K/mol

**Q.** What about the molar heat capacity (320.11 K, Crystal 1) of the same compound?
**A.** 197.4 ± 1.1 J/K/mol

**Q.** And the molar heat capacity (321.54 K, Crystal 1)?
**A.** 198.27 ± 1.1 J/K/mol

**Q.** What about the molar heat capacity (321.81 K, Crystal 1) of the same compound?
**A.** 198.43 ± 1.1 J/K/mol

**Q.** What about the molar heat capacity (321.98 K, Crystal 1) of the same compound?
**A.** 198.37 ± 1.1 J/K/mol

**Q.** And the molar heat capacity (323.3 K, Crystal 1)?
**A.** 199.26 ± 1.1 J/K/mol

**Q.** And the molar heat capacity (323.58 K, Crystal 1)?
**A.** 199.58 ± 1.1 J/K/mol

**Q.** And the molar heat capacity (323.8 K, Crystal 1)?
**A.** 199.44 ± 1.1 J/K/mol

**Q.** What about the molar heat capacity (325.05 K, Crystal 1) of the same compound?
**A.** 200.28 ± 1.1 J/K/mol

**Q.** What about the molar heat capacity (325.35 K, Crystal 1) of the same compound?
**A.** 200.52 ± 1.1 J/K/mol

**Q.** What about the molar heat capacity (325.62 K, Crystal 1) of the same compound?
**A.** 200.47 ± 1.1 J/K/mol

**Q.** And the molar heat capacity (326.81 K, Crystal 1)?
**A.** 201.27 ± 1.1 J/K/mol

**Q.** What about the molar heat capacity (327.11 K, Crystal 1) of the same compound?
**A.** 201.48 ± 1.1 J/K/mol

**Q.** What about the molar heat capacity (327.43 K, Crystal 1) of the same compound?
**A.** 201.55 ± 1.1 J/K/mol

**Q.** What about the molar heat capacity (328.56 K, Crystal 1) of the same compound?
**A.** 202.22 ± 1.1 J/K/mol

**Q.** What about the molar heat capacity (328.87 K, Crystal 1) of the same compound?
**A.** 202.64 ± 1.1 J/K/mol

**Q.** What about the molar heat capacity (329.24 K, Crystal 1) of the same compound?
**A.** 202.56 ± 1.1 J/K/mol

**Q.** What about the molar heat capacity (330.32 K, Crystal 1) of the same compound?
**A.** 203.27 ± 1.1 J/K/mol

**Q.** And the molar heat capacity (330.63 K, Crystal 1)?
**A.** 203.71 ± 1.1 J/K/mol

**Q.** And the molar heat capacity (331.06 K, Crystal 1)?
**A.** 203.58 ± 1.1 J/K/mol

**Q.** What about the molar heat capacity (331.23 K, Crystal 1) of the same compound?
**A.** 203.73 ± 1.1 J/K/mol

**Q.** And the molar heat capacity (332.4 K, Crystal 1)?
**A.** 204.63 ± 1.1 J/K/mol

**Q.** What about the molar heat capacity (332.88 K, Crystal 1) of the same compound?
**A.** 204.71 ± 1.1 J/K/mol

**Q.** What about the molar heat capacity (332.98 K, Crystal 1) of the same compound?
**A.** 204.75 ± 1.1 J/K/mol

**Q.** And the molar heat capacity (334.15 K, Crystal 1)?
**A.** 205.6 ± 1.1 J/K/mol

**Q.** What about the molar heat capacity (334.7 K, Crystal 1) of the same compound?
**A.** 205.74 ± 1.1 J/K/mol

**Q.** What about the molar heat capacity (334.74 K, Crystal 1) of the same compound?
**A.** 205.77 ± 1.1 J/K/mol

**Q.** What about the molar heat capacity (335.91 K, Crystal 1) of the same compound?
**A.** 206.77 ± 1.1 J/K/mol

**Q.** What about the molar heat capacity (336.49 K, Crystal 1) of the same compound?
**A.** 206.75 ± 1.1 J/K/mol

**Q.** And the molar heat capacity (336.52 K, Crystal 1)?
**A.** 206.77 ± 1.1 J/K/mol

**Q.** And the molar heat capacity (337.67 K, Crystal 1)?
**A.** 207.8 ± 1.1 J/K/mol

**Q.** What about the molar heat capacity (338.25 K, Crystal 1) of the same compound?
**A.** 207.78 ± 1.1 J/K/mol

**Q.** And the molar heat capacity (338.35 K, Crystal 1)?
**A.** 207.86 ± 1.1 J/K/mol

**Q.** And the molar heat capacity (339.42 K, Crystal 1)?
**A.** 208.77 ± 1.1 J/K/mol

**Q.** What about the molar heat capacity (339.99 K, Crystal 1) of the same compound?
**A.** 208.85 ± 1.1 J/K/mol

**Q.** What about the molar heat capacity (340.17 K, Crystal 1) of the same compound?
**A.** 209 ± 1.1 J/K/mol

**Q.** What about the molar heat capacity (341.17 K, Crystal 1) of the same compound?
**A.** 209.83 ± 1.1 J/K/mol

**Q.** What about the molar heat capacity (341.74 K, Crystal 1) of the same compound?
**A.** 209.95 ± 1.1 J/K/mol

**Q.** And the molar heat capacity (341.99 K, Crystal 1)?
**A.** 210.15 ± 1.1 J/K/mol

**Q.** And the molar heat capacity (342.93 K, Crystal 1)?
**A.** 210.86 ± 1.1 J/K/mol

**Q.** And the molar heat capacity (343.49 K, Crystal 1)?
**A.** 210.94 ± 1.1 J/K/mol

**Q.** What about the molar heat capacity (343.81 K, Crystal 1) of the same compound?
**A.** 211.29 ± 1.1 J/K/mol

**Q.** And the molar heat capacity (344.68 K, Crystal 1)?
**A.** 212.1 ± 1.1 J/K/mol

**Q.** What about the molar heat capacity (345.25 K, Crystal 1) of the same compound?
**A.** 212.02 ± 1.1 J/K/mol

**Q.** What about the molar heat capacity (345.63 K, Crystal 1) of the same compound?
**A.** 212.36 ± 1.1 J/K/mol

**Q.** And the molar heat capacity (346.43 K, Crystal 1)?
**A.** 213.18 ± 1.1 J/K/mol

**Q.** And the molar heat capacity (346.99 K, Crystal 1)?
**A.** 213.12 ± 1.1 J/K/mol

**Q.** What about the molar heat capacity (347.45 K, Crystal 1) of the same compound?
**A.** 213.43 ± 1.1 J/K/mol

**Q.** What about the molar heat capacity (348.18 K, Crystal 1) of the same compound?
**A.** 214.14 ± 1.1 J/K/mol

**Q.** And the molar heat capacity (348.74 K, Crystal 1)?
**A.** 214.13 ± 1.1 J/K/mol

**Q.** And the molar heat capacity (349.27 K, Crystal 1)?
**A.** 214.58 ± 1.1 J/K/mol

**Q.** And the molar heat capacity (349.93 K, Crystal 1)?
**A.** 215.3 ± 1.1 J/K/mol

**Q.** And the molar heat capacity (350.48 K, Crystal 1)?
**A.** 215.24 ± 1.1 J/K/mol

**Q.** And the molar heat capacity (351.09 K, Crystal 1)?
**A.** 215.74 ± 1.1 J/K/mol

**Q.** And the molar heat capacity (351.67 K, Crystal 1)?
**A.** 216.38 ± 1.1 J/K/mol

**Q.** And the molar heat capacity (352.41 K, Crystal 1)?
**A.** 216.96 ± 1.1 J/K/mol

**Q.** What about the molar heat capacity (352.91 K, Crystal 1) of the same compound?
**A.** 217.26 ± 1.1 J/K/mol

**Q.** What about the molar heat capacity (353.42 K, Crystal 1) of the same compound?
**A.** 217.49 ± 1.1 J/K/mol

**Q.** And the molar heat capacity (354.55 K, Crystal 1)?
**A.** 219.52 ± 1.2 J/K/mol

**Q.** And the molar heat capacity (354.73 K, Crystal 1)?
**A.** 219 ± 1.2 J/K/mol

**Q.** And the molar heat capacity (355.16 K, Crystal 1)?
**A.** 218.64 ± 1.2 J/K/mol

**Q.** And the molar heat capacity (363.8 K, Liquid)?
**A.** 272.42 ± 1.4 J/K/mol

**Q.** What about the molar heat capacity (364.48 K, Liquid) of the same compound?
**A.** 272.66 ± 1.4 J/K/mol

**Q.** And the molar heat capacity (364.59 K, Liquid)?
**A.** 273 ± 1.4 J/K/mol

**Q.** What about the molar heat capacity (365.34 K, Liquid) of the same compound?
**A.** 273.22 ± 1.4 J/K/mol

**Q.** And the molar heat capacity (365.92 K, Liquid)?
**A.** 273.48 ± 1.4 J/K/mol

**Q.** What about the molar heat capacity (366.16 K, Liquid) of the same compound?
**A.** 273.91 ± 1.4 J/K/mol

**Q.** What about the molar heat capacity (366.88 K, Liquid) of the same compound?
**A.** 274.16 ± 1.4 J/K/mol

**Q.** And the molar heat capacity (367.36 K, Liquid)?
**A.** 274.33 ± 1.4 J/K/mol

**Q.** And the molar heat capacity (367.52 K, Liquid)?
**A.** 274.57 ± 1.4 J/K/mol

**Q.** And the molar heat capacity (367.73 K, Liquid)?
**A.** 274.96 ± 1.4 J/K/mol

**Q.** What about the molar heat capacity (368.42 K, Liquid) of the same compound?
**A.** 275.12 ± 1.4 J/K/mol

**Q.** And the molar heat capacity (368.79 K, Liquid)?
**A.** 275.25 ± 1.4 J/K/mol

**Q.** What about the molar heat capacity (368.96 K, Liquid) of the same compound?
**A.** 275.31 ± 1.4 J/K/mol

— the NIST ThermoML archive (doi:10.1021/je700546r)
